This note sets out measurements from patent US9505800B2, “Extended triterpene derivatives” (Myrexis, Inc., priority 2006, dated 2016).

Data set [1] deals with HIV-1IIIB virus. In words: Determination of a compound's EC50 on MT-2 cell line (HIV-1IIIB infection, XTT/PMS viability read-out). Conditions: Table 1; for TI: TI = CC50:EC50 ratio. The format is cell-based. The protocol:
Drug Preparation—The EC50 value for each compound is determined prior to determining the combination index. Each compound is tested in replicates of three, starting at a final concentration of 1 ug/mL. Compounds are dissolved in DMSO at a stock concentration of 10 mg/mL. Test compounds are serially diluted (4-fold dilutions) in a 96-flat-bottom-well plate. The initial working concentration of compound is 4× the desired final concentration. The final volume of drug per well is 45 uL. Included as controls are at least four wells containing cells only and four containing cells and virus in the absence of drug.
Virus Preparation—The HIV-1IIIB virus generated in the H9 cell line is diluted in culture media. The virus is used at a dilution that will cause 50%-75% cell death in day five post-infection as determined by XTT/PMS vital dye. Virus (45 uL) is added to all wells containing drug as well as the control wells.
Cell Preparation—MT-2 cells are added to each well at a volume of 90 uL per well at a cell concentration of 3.3×10^5 cells per mL. MT-2 cells are human T-cell leukemia cells isolated from cord blood lymphocytes and co-cultured with cells from patients with adult T-cell leukemia. […]
Assay—Culture plates are placed in a 37° C., 5% CO2, humidified incubator. […] XTT, (2,3-Bis(2-methoxy-4-nitro-5-sulfophenyl)-2H-tetrazolium-5-carboxanilide) is a yellow tetrazolium salt that, in the presence of dehydrogenase enzymes of metabolically active cells, is reduced to yield a soluble orange formazan dye, which can be measured by absorbance at 490 (or 450) nm in a microplate reader. […] For each plate to be analyzed, 5 mL of XTT/PMS is needed. […] Plates are placed uncovered into a 5% CO2, 37° C. incubator and read on plate reader at a wavelength of 450 nm after four hour incubation.
Data Compilation—The percent inhibition at a given concentration is determined by using the following formula: (average OD-virus control)/(cell control—virus control). The EC50 for each compound is calculated from the linear regression of percent inhibition.
A general note: Formazan colour is commonly taken as a measure of viable cells.

Data set [2] is described as follows: in vitro. Conditions: human.
Data set [3] is described as follows: CC50 (cytotoxicity) reported beside the EC50 values; method not described. Conditions: human, MT-2 cells.

What is called EC50 is the midpoint of the concentration-response curve. With `C=C(C)[C@@H]1CC[C@]2(CCN3CCOCC3)CC[C@]3(C)[C@H](CC[C@@H]4[C@@]5(C)CC[C@H](OC(=O)CC(C)(C)CC(=O)O)C(C)(C)[C@@H]5CC[C@]43C)[C@@H]12`, in data set [1] (Human immunodeficiency virus 1, MT2, 120 h, extended compound vs non-extended analog, MT-2 cells, HIV-1IIIB, day 5 post infection, XTT/PMS), the concentration giving a half-maximal response (EC50) is 0.0221 µM. Moreover, in data set [1], the TI stood at 3387. Besides, the CC50 in data set [2] came out at 74.8 µM.

Compound `C=C(C)[C@@H]1CC[C@]2(CN3CCOCC3)CC[C@]3(C)[C@H](CC[C@@H]4[C@@]5(C)CC[C@H](OC(=O)CC(C)(C)CC(=O)O)C(C)(C)[C@@H]5CC[C@]43C)[C@@H]12` registered a CC50 in data set [3] of 10.4 µM. The TI in data set [1] is 135.
